Patent publication US7763580B2, “Methods for treating conditions associated with the accumulation of excess extracellular matrix” (University of Utah Research Foundation, priority 1999, dated 2010)

Assays:
[1] = test system: anti-Thy 1 glomerulonephritis; test: Proteinuria in anti-Thy 1 glomerulonephritis; type: in vivo, Sprague Dawley rats; settings: enalapril monotherapy
Experimental: (§1) These experiments were performed on male Sprague Dawley rats (200-250 g) obtained from the Sasco colony of Charles River Laboratories (Wilmington, Mass., USA). Animal housing and care were in accordance with the NIH Guide for the Care and Use of Laboratory Animals, NIH Publication No. 85-23, 1985. Animals were fed a normal protein diet (22% protein, Teklad No. 86 550, Teklad Premier Laboratory Diets, Madison, Wis., USA). Glomerulonephritis was induced by tail vein injection of 2.25 mg/Kg of the monoclonal anti-Thy 1.1 antibody OX-7 (NCCC, Biovest International Inc, Minneapolis, Minn., USA). OX-7 binds to a Thy 1-like epitope on the surface of mesangial cells causing complement-dependent cell lysis followed by fibrotic tissue repair (Bagchus et al., Lab Invest. 55:680-687 (1986)). Control animals were injected with similar volumes of phosphate-buffered saline (PBS).
Groups of 8 rats were assigned and treated as outlined in Table 2. Doses of enalapril above […] in drinking water are maximally effective in this model (Peters et al., Kidney Int. 54:1570-1580 (1998)). A dose of […] enalapril was used here. […]
The disease-induced increase in a variable was defined as the mean value for the disease control group minus the mean value of the normal control group. The percent reduction in disease severity in a treated group was calculated as: […]

anti-Thy 1 model = settings: monotherapy, anti-Thy 1 model (Peters et al.); L-arginine 1% in drinking water; cited from earlier work
[2] = test system: anti-Thy 1 glomerulonephritis; test: Glomerular ED1+ monocyte/macrophage count; type: in vivo, Sprague Dawley rats; settings: Enalapril alone, P<0.05
Experimental: as §1, with “(PBS). […] The intensity of glomerular staining of collagen I and fibronectin was evaluated according to a 0 to 4 scale, which has been described in detail previously (Yamamoto et al., Kidney Int. 49:461-469 (1996)). The number of cells per glomerulus, staining positive for the monocyte/macrophage marker ED1, were counted. Thirty glomeruli per sample were evaluated. The mean values with standard error values were calculated. […] The percent reduction in disease severity in a treated group was calculated as: […]” for “(PBS).”

## CCOC(=O)[C@H](CCc1ccccc1)N[C@@H](C)C(=O)N1CCC[C@H]1C(=O)O [enalapril]
[1]
  reduction of disease-induced increases in urinary protein: 78%
anti-Thy 1 model
  reduction of markers of fibrotic disease: about 50%
[2]
  reduction of number of ED1+ cells: 62%
